Data taken from ChEMBL document CHEMBL5335781, “Discovery of quinazolin-4-one-based non-covalent inhibitors targeting the severe acute respiratory syndrome coronavirus 2 main protease (SARS-CoV-2 Mpro)” (Eur J Med Chem, 2023).
In brackets after ≈: the same amount, converted by molar mass. Activity calls are given as the source filed them. The rule behind the calls is not given here.

Columns and labels:
[1] = Plasma protein binding in human assessed as unbound fraction; format: ADME, cell-free
[2] = target: Replicase polyprotein 1ab (Severe acute respiratory syndrome coronavirus 2) (UniProt P0DTD1); conditions: time 30.0 min
Vero C1008 = test: Cytotoxicity against african green monkey Vero E6 cells by CCK-8 assay; format: toxicity, cell-based; conditions: chlorocebus sabaeus
[3] = Metabolic stability in human liver microsomes assessed as half life; format: ADME, Microsome
[4] = Metabolic stability in human liver microsomes assessed as intrinsic clearance; format: ADME, Microsome
[5] = Kinetic solubility in phosphate buffer solution at pH 7.4; format: physicochemical; conditions: read-out: Kinetic_solubility
Cathepsin D = Cathepsin D (Homo sapiens, UniProt P07339); test: Inhibition of human Cathepsin D using fluorogenic substrate by FRET-based assay
Cathepsin B = Cathepsin B (Homo sapiens, UniProt P07858); test: Inhibition of human Cathepsin B using fluorogenic substrate by FRET-based assay
Caspase-2 = target: T1, Caspase-2 (Homo sapiens, UniProt P42575); test: Inhibition of human Caspase 2 using fluorogenic substrate by FRET-based assay
T1 sequence (P42575 whole entry): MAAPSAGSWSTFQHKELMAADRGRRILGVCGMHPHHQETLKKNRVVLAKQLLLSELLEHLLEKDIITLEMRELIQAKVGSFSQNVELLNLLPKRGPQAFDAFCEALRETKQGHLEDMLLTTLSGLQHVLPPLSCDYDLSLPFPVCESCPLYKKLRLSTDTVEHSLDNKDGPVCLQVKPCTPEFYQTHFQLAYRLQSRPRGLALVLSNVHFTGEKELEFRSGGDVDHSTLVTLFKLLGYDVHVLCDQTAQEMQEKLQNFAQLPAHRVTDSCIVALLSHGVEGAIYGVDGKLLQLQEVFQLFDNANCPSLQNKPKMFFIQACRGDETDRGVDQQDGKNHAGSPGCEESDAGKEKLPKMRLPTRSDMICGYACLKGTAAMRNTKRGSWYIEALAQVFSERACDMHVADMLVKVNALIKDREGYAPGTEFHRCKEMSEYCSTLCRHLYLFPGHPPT

Procathepsin L = Procathepsin L (Homo sapiens, UniProt P07711); test: Inhibition of human Cathepsin L using fluorogenic substrate by FRET-based assay
Prothrombin = Prothrombin (Homo sapiens, UniProt P00734); test: Inhibition of human Thrombin using fluorogenic substrate by FRET-based assay

Chain of Procathepsin L (P07711 whole entry): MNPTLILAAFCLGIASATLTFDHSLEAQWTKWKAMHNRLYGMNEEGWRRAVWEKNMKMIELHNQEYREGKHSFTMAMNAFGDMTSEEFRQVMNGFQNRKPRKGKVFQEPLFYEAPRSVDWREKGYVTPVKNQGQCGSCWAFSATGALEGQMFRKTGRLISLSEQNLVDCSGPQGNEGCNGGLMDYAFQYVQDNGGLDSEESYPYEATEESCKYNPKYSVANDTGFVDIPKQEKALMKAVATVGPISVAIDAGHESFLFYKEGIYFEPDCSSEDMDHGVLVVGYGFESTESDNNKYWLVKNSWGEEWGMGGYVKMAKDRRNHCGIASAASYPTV
Chain of Cathepsin D (P07339 65-162 limits assumed): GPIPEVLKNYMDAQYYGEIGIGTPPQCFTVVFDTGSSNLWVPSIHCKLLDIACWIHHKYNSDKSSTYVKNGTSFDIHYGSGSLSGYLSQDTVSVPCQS
Chain of Cathepsin D (P07339 169-412 limits assumed): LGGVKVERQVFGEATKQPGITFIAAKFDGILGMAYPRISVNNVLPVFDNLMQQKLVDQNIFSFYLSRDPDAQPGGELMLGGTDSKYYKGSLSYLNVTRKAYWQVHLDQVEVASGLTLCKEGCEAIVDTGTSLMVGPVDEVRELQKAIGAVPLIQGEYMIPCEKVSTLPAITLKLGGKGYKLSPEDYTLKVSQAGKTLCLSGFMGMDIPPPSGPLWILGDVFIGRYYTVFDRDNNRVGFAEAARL

SMILES	Fu [1]	inhibition [2]	CC50 (Vero C1008)	t1/2 [3]	CLH [4]	solubility kinetic [5]	IC50 (Cathepsin D)	IC50 (Cathepsin B)	IC50 (Caspase-2)	IC50 (Procathepsin L)	IC50 (Prothrombin)
Cc1cc(-n2c(CC(C)C)nc3cc(O)c(O)c(O)c3c2=O)ccc1F	3.17%	Active	> 50 µM								
O=c1cc(-c2ccccc2)oc2cc(O)c(O)c(O)c12 [BAICALEIN]	0.93%		> 50 µM	4.16 min	333.05 µL/min/mg	112 µM (≈ 30.3 µg/mL)					
CC(C)Cc1nc2cc(O)c(O)c(O)c2c(=O)n1-c1ccccc1	2.61%	Active	> 50 µM	20.28 min	68.34 µL/min/mg	156 µM (≈ 50.9 µg/mL)					
O=c1c2c(O)c(O)c(O)cc2nc(-c2ccccc2)n1C1CCCC1		Active									
O=c1c2c(O)c(O)c(O)cc2nc(Cc2ccccc2)n1-c1ccccc1		Active									
O=c1c2c(O)c(O)c(O)cc2nc(-c2ccccc2)n1-c1ccccc1	0.7%	Active	> 50 µM	12.75 min	108.68 µL/min/mg	179 µM (≈ 62.1 µg/mL)	> 10 µM	> 10 µM	> 10 µM	> 10 µM	> 10 µM
